Experimental data from paper PMC10452110, “Indole-3-Acetamido-Polyamines as Antimicrobial Agents and Antibiotic Adjuvants” (Biomolecules, 2023).
pIC50: −log10 of the molar value.

Columns and labels:
[1] = tested on: Acinetobacter baumannii (ATCC 19606); experiment: Intrinsic antimicrobial activity (MIC) against A. baumannii; assay type: cell-based; settings: ATCC19606, A. baumannii ATCC 19606, mean (n = 2), read-out: MIC A. b
Experimental: (§1) The susceptibility of bacterial strains Staphylococcus aureus (ATCC 25923), Escherichia coli (ATCC 25922) and Pseudomonas aeruginosa (ATCC 27853) to antibiotics and compounds was determined using previously reported protocols. Additional antimicrobial evaluation against MRSA (ATCC 43300), Klebsiella pneumoniae (ATCC 700603), Acinetobacter baumannii (ATCC 19606), Candida albicans (ATCC 90028) and Cryptococcus neoformans (ATCC 208821) was undertaken at the Community for Open Antimicrobial Drug Discovery at The University of Queensland (Australia) according to their standard protocols, as reported previously.

Cytotoxicity assay = assay type: cell-based; settings: human; HEK293 cells; mean (n = 2); read-out: Cytotoxicity: concentration of compound at 50% cytotoxicity (IC50)
Experimental: Cytotoxicity assays were conducted using the protocols previously reported.

[2] = tested on: Staphylococcus aureus (ATCC 25923); experiment: Intrinsic antimicrobial activity (MIC) against S. aureus; assay type: cell-based; settings: ATCC25923, S. aureus ATCC 25923, mean (n = 3), read-out: MIC S. a
Experimental: as §1

[3] = tested on: Candida albicans (ATCC 90028); experiment: Intrinsic antifungal activity (MIC) against C. albicans; assay type: cell-based; settings: ATCC90028, C. albicans ATCC 90028, mean (n = 2), read-out: MIC C. a
Experimental: as §1

[4] = tested on: Cryptococcus neoformans (ATCC 208821); experiment: Intrinsic antifungal activity (MIC) against C. neoformans; assay type: cell-based; settings: ATCC208821, C. neoformans ATCC 208821, mean (n = 2), read-out: MIC C. n
Experimental: as §1

MRSA (ATCC 43300) = experiment: Intrinsic antimicrobial activity (MIC) against MRSA; assay type: cell-based; settings: Staphylococcus aureus, MRSA ATCC 43300; mean (n = 2); read-out: MIC MRSA
Experimental: as §1

human red blood cells = experiment: Hemolytic assay; assay type: cell-based; settings: mean (n = 2)
Experimental: Hemolysis assays were conducted using the protocols previously reported.

[5] = tested on: Klebsiella pneumoniae (ATCC 700603); experiment: Intrinsic antimicrobial activity (MIC) against K. pneumoniae; assay type: cell-based; settings: ATCC700603, K. pneumoniae ATCC 700603, mean (n = 2), read-out: MIC K. p
Experimental: as §1

[6] = tested on: Escherichia coli (ATCC 25922); experiment: Intrinsic antimicrobial activity (MIC) against E. coli; assay type: cell-based; settings: ATCC25922, E. coli ATCC 25922, mean (n = 3), read-out: MIC E. c
Experimental: as §1

E. coli ATCC 25922 = experiment: Enhancement of erythromycin action against E. coli; assay type: cell-based, Escherichia coli; settings: erythromycin at 10.9 µM
Experimental: (§2) Antibiotic enhancer concentrations were determined using previously reported protocols.

P. aeruginosa ATCC 27853 = experiment: Enhancement of doxycycline action against P. aeruginosa; assay type: cell-based, Pseudomonas aeruginosa; settings: doxycycline at 4.5 µM
Experimental: as §2

[7] = tested on: Pseudomonas aeruginosa (ATCC 27853); experiment: Intrinsic antimicrobial activity (MIC) against P. aeruginosa; assay type: cell-based; settings: ATCC27853, P. aeruginosa ATCC 27853, mean (n = 3), read-out: MIC P. a
Experimental: as §1

Row | Structure (SMILES) | MIC [1] [µM] | pIC50 (Cytotoxicity assay) | MIC [2] [µM] | MIC [3] [µM] | MIC [4] [µM] | MIC (MRSA (ATCC 43300)) [µM] | Hemolysis: concentration of compound at 10% hemolytic activity (HC10) (human red blood cells) [µM] | MIC [5] [µM] | MIC [6] [µM] | Eryth/E. c: concentration required to restore erythromycin activity (combination MIC) (E. coli ATCC 25922) [µM] | Dox/P. a fold change (ratio between intrinsic MIC of the test compound and combination MIC) (P. aeruginosa ATCC 27853) [fold] | Dox/P. a: concentration required to restore doxycycline activity (combination MIC) (P. aeruginosa ATCC 27853) [µM] | MIC [7] [µM]
1 | Cc1ccc2[nH]cc(CC(=O)NCCCNCCCCCCNCCCNC(=O)Cc3c[nH]c4ccc(C)cc34)c2c1.O=C(O)C(F)(F)F.O=C(O)C(F)(F)F [Compound 17b, N^1,N^6-Bis(3-(2-(5-methyl-1H-indol-3-yl)acetamido)propyl)hexane-1,6-diaminium 2,2,2-trifluoroacetate] | > 40 | < 4.40 | 31.2 | 40 | ≤ 0.31 | ≤ 0.31 | 23.1 | > 40 | 250 | 31.2 | > 8 | 31.2 | > 250
2 | COc1cccc2c(CC(=O)NCCCNCCCCCCCCNCCCNC(=O)Cc3c[nH]c4c(OC)cccc34)c[nH]c12.O=C(O)C(F)(F)F.O=C(O)C(F)(F)F [Compound 19d, N^1,N^8-Bis(3-(2-(7-methoxy-1H-indol-3-yl)acetamido)propyl)octane-1,8-diaminium 2,2,2-trifluoroacetate] | – | < 4.43 | 116 | > 37 | ≤ 0.29 | 37.2 | >37 | – | > 232 | > 232 | 1 | > 232 | > 232
3 | O=C(Cc1c[nH]c2c(F)cccc12)NCCCNCCCCCCCCCCNCCCNC(=O)Cc1c[nH]c2c(F)cccc12.O=C(O)C(F)(F)F.O=C(O)C(F)(F)F [Compound 18e, N^1,N^10-Bis(3-(2-(7-fluoro-1H-indol-3-yl)acetamido)propyl)decane-1,10-diaminium 2,2,2-trifluoroacetate] | – | < 4.43 | 7.23 | 2.31 | ≤ 0.29 | ≤ 0.29 | 1.49 | – | 116 | 57.8 | 1 | 231 | > 231
4 | Cc1cccc2c(CC(=O)NCCCNCCCCCCCNCCCNC(=O)Cc3c[nH]c4c(C)cccc34)c[nH]c12.O=C(O)C(F)(F)F.O=C(O)C(F)(F)F [Compound 20c, N^1,N^7-Bis(3-(2-(7-methyl-1H-indol-3-yl)acetamido)propyl)heptane-1,7-diaminium 2,2,2-trifluoroacetate] | > 39 | < 4.41 | 3.83 | > 39 | < 0.2 | < 0.2 | – | > 39 | 245 | 123 | > 2 | 123 | > 245
5 | O=C(Cc1c[nH]c2ccccc12)NCCCNCCCCCCNCCCNC(=O)Cc1c[nH]c2ccccc12.O=C(O)C(F)(F)F.O=C(O)C(F)(F)F [Compound 14b, N^1,N^6-Bis(3-(2-(1H-indol-3-yl)acetamido)propyl)hexane-1,6-diaminium 2,2,2-trifluoroacetate] | – | < 4.39 | 129 | > 41 | < 0.2 | < 0.2 | >41 | – | > 129 | > 259 | > 2 | 129 | > 259
6 | Cc1cccc2c(CC(=O)NCCCNCCCCCCCCCCNCCCNC(=O)Cc3c[nH]c4c(C)cccc34)c[nH]c12.O=C(O)C(F)(F)F.O=C(O)C(F)(F)F [Compound 20e, N^1,N^10-Bis(3-(2-(7-methyl-1H-indol-3-yl)acetamido)propyl)decane-1,10-diaminium 2,2,2-trifluoroacetate] | – | < 4.43 | 233 | 18.7 | ≤ 0.29 | ≤ 0.29 | 12.7 | – | > 233 | > 233 | 1 | > 233 | > 233
7 | COc1cccc2c(CC(=O)NCCCNCCCCCCCCCCCCNCCCNC(=O)Cc3c[nH]c4c(OC)cccc34)c[nH]c12.O=C(O)C(F)(F)F.O=C(O)C(F)(F)F [Compound 19f, N^1,N^12-Bis(3-(2-(7-methoxy-1H-indol-3-yl)acetamido)propyl)dodecane-1,12-diaminium 2,2,2-trifluoroacetate] | – | < 4.46 | 13.6 | 34.9 | ≤ 0.27 | ≤ 0.27 | 10.7 | – | 109 | 109 | > 1 | 218 | > 218
8 | Cc1ccc2[nH]cc(CC(=O)NCCCNCCCCCCCCNCCCNC(=O)Cc3c[nH]c4ccc(C)cc34)c2c1.O=C(O)C(F)(F)F.O=C(O)C(F)(F)F [Compound 17d, N^1,N^8-Bis(3-(2-(5-methyl-1H-indol-3-yl)acetamido)propyl)octane-1,8-diaminium 2,2,2-trifluoroacetate] | – | < 4.41 | 15.1 | 2.41 | ≤ 0.3 | ≤ 0.3 | 0.42 | – | 241 | 121 | > 1 | 241 | > 241
9 | Cc1cccc2c(CC(=O)NCCCNCCCCCCNCCCNC(=O)Cc3c[nH]c4c(C)cccc34)c[nH]c12.O=C(O)C(F)(F)F.O=C(O)C(F)(F)F [Compound 20b, N^1,N^6-Bis(3-(2-(7-methyl-1H-indol-3-yl)acetamido)propyl)hexane-1,6-diaminium 2,2,2-trifluoroacetate] | – | < 4.40 | 62.4 | 40 | ≤ 0.31 | ≤ 0.31 | 9.24 | – | 250 | 62.4 | > 1 | 250 | > 250
10 | Cc1cccc2c(CC(=O)NCCCNCCCCNCCCNC(=O)Cc3c[nH]c4c(C)cccc34)c[nH]c12.O=C(O)C(F)(F)F.O=C(O)C(F)(F)F [Compound 20a, N^1,N^4-Bis(3-(2-(7-methyl-1H-indol-3-yl)acetamido)propyl)butane-1,4-diaminium 2,2,2-trifluoroacetate] | – | < 4.39 | 32.3 | 41.4 | ≤ 0.32 | ≤ 0.32 | 4.11 | – | 259 | 64.7 | 1 | > 259 | > 259
